molecular target: Human CD38 (Homo sapiens (Human), UniProt P28907); assay: CD38 enzyme assay; type: biochemical; conditions: 2 nM CD38, NAD+ substrate, absorbance at 405 nm
How it was run: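 IC50 values come from fitting % inhibition against compound concentration with a 4-parameter logistic, or a 3-parameter fit with top/bottom fixed at 100/0 or Hill at 1. Inhibition is scaled between DMSO wells and positive-control wells treated with a quinolinone CD38 inhibitor.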

Chain of Human CD38 (P28907 whole entry): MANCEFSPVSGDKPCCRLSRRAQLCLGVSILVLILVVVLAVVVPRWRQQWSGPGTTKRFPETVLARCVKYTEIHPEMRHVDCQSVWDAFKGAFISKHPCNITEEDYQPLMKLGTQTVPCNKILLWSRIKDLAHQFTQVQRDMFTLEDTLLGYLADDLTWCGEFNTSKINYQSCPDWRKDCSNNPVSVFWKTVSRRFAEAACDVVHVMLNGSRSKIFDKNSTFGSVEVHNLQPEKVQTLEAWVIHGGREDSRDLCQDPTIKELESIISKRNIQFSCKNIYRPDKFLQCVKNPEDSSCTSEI

IC50 | Compound
100 to 1000 nM | COCCO[C@H]1CC[C@H](NC(=O)c2nc(-n3ccnc3)nc3ncsc23)CC1 [Example 25, 5-(1H-Imidazol-1-yl)-N-((1r,4r)-4-(2-methoxyethoxy)cyclohexyl)thiazolo[4,5-d]pyrimidine-7-carboxamide]
100 to 1000 nM | O=C(N[C@H]1CC[C@@H](NCC(F)F)CC1)c1nc(-n2ccnc2)nc2cc[nH]c12 [Example 106, N-((1s,4s)-4-((2,2-difluoroethyl)amino)cyclohexyl)-2-(1H-imidazol-1-yl)-5H-pyrrolo[3,2-d]pyrimidine-4-carboxamide]
10 to 100 nM | O=C(N[C@H]1CC[C@@H](OCC(F)(F)F)CC1)c1nc(-n2ccnc2)cc2cn[nH]c12 [Example 251, 5-(1H-imidazol-1-yl)-N-((1s,4s)-4-(2,2,2-trifluoroethoxy)cyclohexyl)-1H-pyrazolo[3,4-c]pyridine-7-carboxamide]
100 to 1000 nM | Cc1nc2cc(-n3ccnc3)cc(C(=O)NCc3c(F)cccc3C(F)(F)F)c2[nH]1 [Example 42, N-(2-Fluoro-6-(trifluoromethyl)benzyl)-5-(1H-imidazol-1-yl)-2-methyl-1H-benzo[d]imidazole-7-carboxamide]
10 to 100 nM | O=C(N[C@H]1CC[C@@H](NCC(F)(F)F)CC1)c1nc(-n2ccnc2)nc2cc[nH]c12 [Example 102, 2-(1H-imidazol-1-yl)-N-((1s,4s)-4-((2,2,2-trifluoroethyl)amino)cyclohexyl)-5H-pyrrolo[3,2-d]pyrimidine-4-carboxamide]
< 10 nM | N#CC[C@H]1CC[C@H](NC(=O)c2nc(-n3ccnc3)nc3cc[nH]c23)CC1 [Example 185]
100 to 1000 nM | COCCO[C@H]1CC[C@H](NC(=O)c2cc(-c3cncs3)cc3nc(C)[nH]c23)CC1 [Example 13, N-((1r,4r)-4-(2-Methoxyethoxy)cyclohexyl)-2-methyl-5-(thiazol-5-yl)-1H-benzo[d]imidazole-7-carboxamide]
10 to 100 nM | CN(CC(F)(F)F)[C@H]1CC[C@H](NC(=O)c2nc(-n3ccnc3)cc3cn[nH]c23)CC1 [Example 218, 5-(1H-imidazol-1-yl)-N-((1r,4r)-4-(methyl(2,2,2-trifluoroethyl)amino)cyclohexyl)-1H-pyrazolo[3,4-c]pyridine-7-carboxamide]
10 to 100 nM | O=C(NCCC1CCC(F)(F)CC1)c1nc(-n2ccnc2)nc2cc[nH]c12 [Example 157]
10 to 100 nM | Cc1nc2nc(-n3ccnc3)nc(C(=O)NC3CCC(F)(F)CC3)c2[nH]1 [Example 117, N-(4,4-difluorocyclohexyl)-2-(1H-imidazol-1-yl)-8-methyl-7H-purine-6-carboxamide]
100 to 1000 nM | COCCO[C@H]1CC[C@H](NC(=O)c2cc(-c3cncs3)cc3nc[nH]c23)CC1 [Example 4, N-((1r,4r)-4-(2-Methoxyethoxy)cyclohexyl)-5-(thiazol-5-yl)-1H-benzo[d]imidazole-7-carboxamide]
10 to 100 nM | C[C@@H](O)CO[C@H]1CC[C@H](NC(=O)c2nc(-n3ccnc3)cc3cn[nH]c23)CC1 (single isomer, unassigned) [Example 208]
< 10 nM | CN(C)CCOc1ccc(NC(=O)c2nc(-n3ccnc3)nc3ccsc23)cn1 [Example 151]
10 to 100 nM | O=C(N[C@H]1CC[C@H](N2CC(C(F)(F)F)C2)CC1)c1nc(-n2ccnc2)nc2cn[nH]c12 [Example 241, 5-(1H-imidazol-1-yl)-N-((1r,4r)-4-(3-(trifluoromethyl)azetidin-1-yl)cyclohexyl)-1H-pyrazolo[4,3-d]pyrimidine-7-carboxamide]
10 to 100 nM | O=C(NC1CCN(C(=O)CN2CCOCC2)CC1)c1nc(-n2ccnc2)nc2cc[nH]c12 [Example 143]
10 to 100 nM | O=C(N[C@H]1CC[C@H](NCCC(F)F)CC1)c1nc(-n2ccnc2)nc2cc[nH]c12 [Example 180]
10 to 100 nM | CNC(=O)[C@H]1CC[C@H](NC(=O)c2nc(-n3ccnc3)nc3cc[nH]c23)CC1 [Example 170]
< 10 nM | O=C(Nc1cnc(OCCN2CCOCC2)c(Cl)c1)c1nc(-n2ccnc2)nc2cc[nH]c12 [Example 156]
100 to 1000 nM | O=C(NCc1ccccc1)c1nc(-n2ccnc2)nc2cc[nH]c12 [Example 79, N-Benzyl-2-(1H-imidazol-1-yl)-5H-pyrrolo[3,2-d]pyrimidine-4-carboxamide]
< 10 nM | O=C(Nc1cn[nH]c1)c1nc(-n2ccnc2)nc2cc[nH]c12 [Example 98, 2-(1H-Imidazol-1-yl)-N-(1H-pyrazol-4-yl)-5H-pyrrolo[3,2-d]pyrimidine-4-carboxamide]

IC50 | Compound
< 10 nM | CS(=O)(=O)N1CCC(NC(=O)c2nc(-n3ccnc3)nc3cc[nH]c23)CC1 [Example 75, 2-(1H-Imidazol-1-yl)-N-(1-(methylsulfonyl)piperidin-4-yl)-5H-pyrrolo[3,2-d]pyrimidine-4-carboxamide]
10 to 100 nM | CN(C)CCO[C@H]1CC[C@H](NC(=O)c2nc(-n3ccnc3)nc3cc[nH]c23)CC1 [Example 72, N-((1r,4r)-4-(2-(Dimethylamino)ethoxy)cyclohexyl)-2-(1H-imidazol-1-yl)-5H-pyrrolo[3,2-d]pyrimidine-4-carboxamide]
< 10 nM | O=C(N[C@H]1CC[C@H](C(F)(F)F)CC1)c1nc(-n2ccnc2)nc2cc[nH]c12 [Example 39b, 2-(1H-imidazol-1-yl)-N-((1r,4r)-4-(trifluoromethyl)cyclohexyl)-5H-pyrrolo[3,2-d]pyrimidine-4-carboxamide]
< 10 nM | O=C(Nc1ccccn1)c1nc(-n2ccnc2)nc2cc[nH]c12 [Example 81, 2-(1H-Imidazol-1-yl)-N-(pyridin-2-yl)-5H-pyrrolo[3,2-d]pyrimidine-4-carboxamide]
10 to 100 nM | O=C(N[C@H]1CC[C@H](NCCC(F)(F)F)CC1)c1nc(-n2ccnc2)nc2ccsc12 [Example 222, 2-(1H-imidazol-1-yl)-N-((1r,4r)-4-((3,3,3-trifluoropropyl)amino)cyclohexyl)thieno[3,2-d]pyrimidine-4-carboxamide]
< 10 nM | O=C(N[C@H]1CC[C@H](CO)CC1)c1nc(-n2ccnc2)nc2cc[nH]c12 [Example 174]
10 to 100 nM | COC(C)(C)[C@H]1CC[C@H](NC(=O)c2nc(-n3ccnc3)nc3cc[nH]c23)CC1 [Example 187]
10 to 100 nM | O=C(NCCC(F)F)c1nc(-n2ccnc2)cc2cn[nH]c12 [Example 245, N-(3,3-difluoropropyl)-5-(1H-imidazol-1-yl)-1H-pyrazolo[3,4-c]pyridine-7-carboxamide]
10 to 100 nM | COCCO[C@H]1CC[C@H](NC(=O)c2nc(-n3ccnc3)nc3nc[nH]c23)CC1 [Example 14, 2-(1H-Imidazol-1-yl)-N-((1r,4r)-4-(2-methoxyethoxy)cyclohexyl)-7H-purine-6-carboxamide]
10 to 100 nM | CN(CC(F)(F)F)[C@H]1CC[C@H](NC(=O)c2nc(-n3ccnc3)nc3cc[nH]c23)CC1 [Example 112, 2-(1H-imidazol-1-yl)-N-((1r,4r)-4-(methyl(2,2,2-trifluoroethyl)amino)cyclohexyl)-5H-pyrrolo[3,2-d]pyrimidine-4-carboxamide]
< 10 nM | CC(=O)NC[C@H]1CC[C@H](NC(=O)c2nc(-n3ccnc3)nc3cc[nH]c23)CC1 [Example 114, N-((1r,4r)-4-(acetamidomethyl)cyclohexyl)-2-(1H-imidazol-1-yl)-5H-pyrrolo[3,2-d]pyrimidine-4-carboxamide]
100 to 1000 nM | O=C(NCc1c(F)cccc1C(F)(F)F)c1cc(-n2ccnc2)cc2cc[nH]c12 [Example 5, N-(2-Fluoro-6-(trifluoromethyl)benzyl)-5-(1H-imidazol-1-yl)-1H-indole-7-carboxamide]
10 to 100 nM | O=C(Nc1ccc(OCCN2CC3(COC3)C2)nc1)c1nc(-n2ccnc2)cc2cn[nH]c12 [Example 230, N-(6-(2-(2-oxa-6-azaspiro[3.3]heptan-6-yl)ethoxy)pyridin-3-yl)-5-(1H-imidazol-1-yl)-1H-pyrazolo[3,4-c]pyridine-7-carboxamide]
10 to 100 nM | COCCN(C)[C@H]1CC[C@H](NC(=O)c2nc(-n3ccnc3)nc3cc[nH]c23)CC1 [Example 57, 2-(1H-Imidazol-1-yl)-N-((1r,4r)-4-((2-methoxyethyl)(methyl)amino)cyclohexyl)-5H-pyrrolo[3,2-d]pyrimidine-4-carboxamide]
10 to 100 nM | C[C@H](O)CO[C@H]1CC[C@H](NC(=O)c2nc(-n3ccnc3)cc3cn[nH]c23)CC1 (single isomer, unassigned) [Example 207]
10 to 100 nM | COCCO[C@H]1CC[C@H](NC(=O)c2nc(-n3ccnc3)cc3cc[nH]c23)CC1 [Example 12, 5-(1H-Imidazol-1-yl)-N-((1r,4r)-4-(2-methoxyethoxy)cyclohexyl)-1H-pyrrolo[2,3-c]pyridine-7-carboxamide]
10 to 100 nM | O=C(NC1(c2ccccc2)CC1)c1nc(-n2ccnc2)nc2cc[nH]c12 [Example 164]
100 to 1000 nM | COCCO[C@H]1CC[C@H](NC(=O)c2nc(-c3cncs3)cc3cn[nH]c23)CC1 [Example 21, N-((1r,4r)-4-(2-Methoxyethoxy)cyclohexyl)-5-(thiazol-5-yl)-1H-pyrazolo[3,4-c]pyridine-7-carboxamide]
10 to 100 nM | N#C[C@H]1CC[C@H](CNC(=O)c2nc(-n3ccnc3)nc3cc[nH]c23)CC1 [Example 166]
10 to 100 nM | O=C(N[C@H]1CC[C@@](O)(C(F)(F)F)CC1)c1nc(-n2ccnc2)nc2cc[nH]c12 [Example 120b, N-((1r,4r)-4-hydroxy-4-(trifluoromethyl)cyclohexyl)-2-(1H-imidazol-1-yl)-5H-pyrrolo[3,2-d]pyrimidine-4-carboxamide]

Compound | IC50
O=C(N[C@H]1CC[C@@H](NCC(F)(F)F)CC1)c1nc(-n2ccnc2)cc2cn[nH]c12 [Example 116, 5-(1H-imidazol-1-yl)-N-((1s,4s)-4-((2,2,2-trifluoroethyl)amino)cyclohexyl)-1H-pyrazolo[3,4-c]pyridine-7-carboxamide] | 10 to 100 nM
CC(F)(F)CN[C@H]1CC[C@@H](NC(=O)c2nc(-n3ccnc3)cc3cn[nH]c23)CC1 [Example 194, N-((1s,4s)-4-((2,2-difluoropropyl)amino)cyclohexyl)-5-(1H-imidazol-1-yl)-1H-pyrazolo[3,4-c]pyridine-7-carboxamide] | 100 to 1000 nM
